Experiments:
[1] = test system: conscious, male hypertensive deoxycorticosterone acetate salt rats; test: Acute effects of Exforge HCT alone or with ACT-132577 or spironolactone in DOCA-salt rats; type: in vivo, rat; conditions: for Blood pressure when added on top of Exforge HCT: aprocitentan 10 mg/kg or spironolactone 300 mg/kg, single oral doses
From the text: Res. (1975), 36, 300-309). In the DOCA-salt rats, hypertension is induced by the combination of unilateral nephrectomy, implantation of pellets of the mineralocorticoid analog DOCA, and provision of 1% sodium chloride in drinking water. 7-9 DOCA-salt rats per treatment group are used for this test. The results obtained regarding MAP are summarised in FIGS. 17 and 18 wherein each data point is presented as a 6-hour mean.

[2] = test system: conscious, male spontaneaously hypertensive rats; test: Acute effects of Exforge HCT alone or with ACT-132577 or spironolactone in SHRs; type: in vivo, rat; conditions: for Blood pressure when added on top of Exforge HCT: aprocitentan 100 mg/kg or spironolactone 300 mg/kg oral
Procedure: The acute effects of Exforge HCT® (i.e. a fixed dose combination of valsartan/amlodipine/hydrochlorothiazide; dosage adapted for 1.6 mg/kg/0.1 mg/kg/0.25 mg/kg for valsartan/amlodipine/hydrochlorothiazide, respectively) on blood pressure, in particular on mean arterial blood pressure (hereafter “MAP”), and heart rate (hereafter “HR”) in combination with ACT-132577 or spironolactone can be evaluated by means of telemetry in conscious, male spontaneaously hypertensive rats (hereafter “SHRs”—see details about this model in Atanur et al., Genome Res. (2010), 20, 791-803).
9 SHRs per treatment group are used for this test. To match the maximal effect on blood pressure of co-administereds drug in this model, aprocitentan 100 mg/kg is administrated orally on the 3rd day following 3-day oral administration of Exforge HCT® mg/kg and spironolactone 300 mg/kg is co-administered orally with Exforge HCT® on the 1st day followed by 2 days of Exforge HCT® administration. The results obtained regarding MAP are summarised in FIGS. 15 and 16 wherein each data point is presented as a 6-hour mean.

[3] = test system: conscious, male spontaneaously hypertensive rats; test: Acute effects on MAP and HR by telemetry in SHRs; type: in vivo, rat
Procedure: The acute effects of ACT-132577 on blood pressure, in particular on mean arterial blood pressure (hereafter “MAP”), and heart rate (hereafter “HR”) can be evaluated by means of telemetry in conscious, male spontaneaously hypertensive rats (hereafter “SHRs”—see details about this model in Atanur et al., Genome Res. (2010), 20, 791-803). Groups of 4-6 SHRs are used for the vehicle (7.5% gelatin aqeuous solution) and each dose of ACT-132577 tested (1, 3, 10, 30, 100, and 300 mg/kg). Effects of ACT-132577 on HR and MAP are calculated for individual animals relative to the 24 h period before administering. The results obtained regarding MAP (maximal MAP decrease observed over 6 consecutive hours) are summarised in FIG. 5 (data are presented as mean±standard error of the mean). […] In contrast to MAP, HR was not affected.

male Wistar rats = test: Effect on fluid retention: haematocrit in Wistar rats; type: in vivo, rat; conditions: single oral dose 1-30 mg/kg, 24 hours after administration
Procedure: A decrease in haematocrit (Hct) or haemoglobin occurs secondary to an increase in plasma volume and can be used as a marker of fluid retention. A single oral dose of ACT 132577 (1-30 mg/kg) or vehicle (gelatin) is administered by gavage to male Wistar rats. Twenty-four hours after administration, sublingual blood was sampled under isoflurane-induced anesthesia. Haematocrit is measured using a hematology analyser.

[4] = test system: conscious, male hypertensive deoxycorticosterone acetate salt rats; test: Chronic effects of ACT-132577 in DOCA-salt rats; type: in vivo, rat
From the text: Res. (1975), 36, 300-309). In the DOCA-salt rats, hypertension is induced by the combination of unilateral nephrectomy, implantation of pellets of the mineralocorticoid analog DOCA, and provision of 1% sodium chloride in drinking water. The results of the DOCA-salt rats treated with ACT-132577 can be compared to those obtained for Wistar rats or for DOCA-salt rats that received only the vehicle (4% gelatin aqueous solution).

[5] = in comparison to corresponding alkylated derivatives; cited from earlier work
[6] = test system: Spontaneously hypertensive rats (SHR); test: Blood pressure by telemetry in SHR, SGLT-2 inhibitor alone or in combination with ACT-132577; type: in vivo, rat; conditions: for Maximal effect on MAP of SGLT2 inhibitor alone: 30 mg/kg/day by gavage
From the text: Spontaneously hypertensive rats (SHR) are instrumented micro-surgically with a telemetry pressure transmitter implanted in the peritoneal cavity (Data Science International, Minnesota, USA) under isoflurane-induced narcosis. In brief, the pressure catheter is inserted into the aorta, below the renal artery pointing upstream. The abdomen is closed and the transmitter sutured to the abdominal musculature. Blood pressure is collected continuously using the Dataquest ART Platinum acquisition system (version 4.36). Drugs (ACT-132577 or SGLT2 inhibitors) or vehicle are administered by gavage (n=4-7 per group) alone or in combination. Systolic, mean and diastolic arterial pressures, and heart rate are collected at 5-minute intervals until the blood pressure curve comes back to baseline.
Because it takes several days for the SGLT2 inhibitors to exert an effect on blood pressure, rats are treated first for 12 days with either vehicle (5 ml/kg/day), or canagliflozin (30 mg/kg/day) or empagliflozin (30 mg/kg/day), then ACT-132577 (30 mg/kg/day) is co-administered for 3 additional days.

[7] = test system: conscious, male hypertensive deoxycorticosterone acetate salt rats; test: Acute effects on MAP and HR by telemetry in DOCA-salt rats; type: in vivo, rat
From the text: The acute effects of ACT-132577 on blood pressure, in particular on mean arterial blood pressure (hereafter “MAP”), and heart rate (hereafter “HR”) can be evaluated by means of telemetry in conscious, male hypertensive deoxycorticosterone acetate salt rats (hereafter “DOCA-salt rats”—see details about this model in Gavras et al., Circ. Res. (1975), 36, 300-309). In the DOCA-salt rats, hypertension is induced by the combination of unilateral nephrectomy, implantation of pellets of the mineralocorticoid analog DOCA, and provision of 1% sodium chloride in drinking water. Groups of 6-11 DOCA-salt rats are used for the vehicle (7.5% gelatin aqeuous solution) and each dose of ACT-132577 tested (0.3, 1, 3, 10, 30, 100, and 300 mg/kg). Effects of ACT-132577 on HR and MAP are calculated for individual animals relative to the 24 h period before administering. The results obtained regarding MAP (maximal MAP decrease observed over 6 consecutive hours) are summarised in FIG. 4 (data are presented as mean±standard error of the mean). […] In contrast to MAP, HR was not affected.

[8] = test system: conscious, male hypertensive Dahl salt-sensitive rats; test: Acute effects on MAP and HR by telemetry in Dahl salt-sensitive rats; type: in vivo, rat; conditions: Dahl-S rats
From the text: The acute effects of ACT-132577 on blood pressure, in particular on mean arterial blood pressure (hereafter “MAP”), and heart rate (hereafter “HR”) can be evaluated by means of telemetry in conscious, male hypertensive Dahl salt-sensitive rats (hereafter “Dahl-S rats”—see details about this model in Rapp, Hypertension (1982), 4, 753-763). Elevated blood pressure is induced in Dahl-S rats by providing 1% sodium chloride in drinking water. Groups of 6-7 Dahl-S rats are used for the vehicle (7.5% gelatin aqeuous solution) and each dose of ACT-132577 tested (0.3, 1, 3, 10, 30, 100, and 300 mg/kg). Effects of ACT-132577 on HR and MAP are calculated for individual animals relative to the 24 h period before administering. The results obtained regarding MAP (maximal MAP decrease observed over 6 consecutive hours) are summarised in FIG. 3 (data are presented as mean±standard error of the mean). […] In contrast to MAP, HR was not affected.

[9] = test system: patients with type 2 diabetes; conditions: overt diabetic nephropathy; cited from earlier work
[10] = Hygroscopicity by gravimetric vapor sorption (GVS); type: physicochemical
From the text: Mass increase of a sample as obtained according to Example 1 in the first cycle from 40% r.h. to 80% r.h. corresponds to 0.4%. At 95% r.h. 2.2% moisture were taken up in a reversible way without hysteresis upon drying.

[11] = Storage of Form A crystals at room temperature (XRPD and HPLC control); type: physicochemical; conditions: 20-25° C., 92% relative humidity
Procedure: All XRPD patterns for the solid forms described herein have been obtained as described hereafter. X-ray powder diffraction patterns were collected on a Bruker D8 Advance X-ray diffractometer equipped with a Lynxeye detector operated with CuKα-radiation in reflection mode (coupled two Theta/Theta). Typically, the X-ray tube was run at of 40 kV/40 mA. A step size of 0.02° (2θ) and a step time of 76.8 sec over a scanning range of 3-50° in 2θ were applied. The divergence slit was set to fixed 0.3. Powders were slightly pressed into a silicon single crystal sample holder with depth of 0.5 mm and samples were rotated in their own plane during the measurement. Diffraction data are reported using combined Cu Kα1 and Kα2 radiation, without Kα2 stripping. The accuracy of the 2θ values as provided herein is in the range of +/−0.1-0.2° as it is generally the case for conventionally recorded X-ray powder diffraction patterns. A sample of Form A crystals of the COMPOUND (as obtained according to Example 1 above) has been stored at a temperature of 20-25° C. at 92% relative humidity for 2 months. […] The same result was obtained after storage for 8 weeks under the above conditions.

patients with rHT = conditions: 14 week phase 3 trial, versus 12% in each of the other groups; cited from earlier work
[12] = chronic oral administration, DOCA-salt rats
[13] = oral, 1, 10 and 100 mg/kg/day for 4 weeks

Compound: CC(=O)S[C@@H]1CC2=CC(=O)CC[C@]2(C)[C@H]2CC[C@@]3(C)[C@@H](CC[C@@]34CCC(=O)O4)[C@H]12 [spironolactone, reference compound]
- Blood pressure when added on top of Exforge HCT [1]: further reduced blood pressure
- Blood pressure when added on top of Exforge HCT [2]: further reduced blood pressure

Compound: NS(=O)(=O)Nc1ncnc(OCCOc2ncc(Br)cn2)c1-c1ccc(Br)cc1 [ACT-132577, {5-(4-bromo-phenyl)-6-[2-(5-bromo-pyrimidin-2-yloxy)-ethoxy]-pyrimidin-4-yl}-sulfamide]
- Heart rate (HR) [3]: not affected
- MAP decrease (maximal MAP decrease observed over 6 consecutive hours) ([3]; 100 mg/kg, mean±SEM): 18±4 mm Hg
- Haematocrit (Hct), marker of fluid retention (male Wistar rats): did not impact
- Left ventricular hypertrophy [4, 12]: tended to decrease
- Plasma concentrations of N-terminal pro-brain natriuretic peptide (NTproBNP) [4, 12]: dose-dependent decrease
- Renal blood flow [4, 12]: dose-dependently increased
- Renal vascular resistance [4, 12]: decreased
- DOCA-salt-induced increase in MAP [4, 13]: dose-dependently attenuated
- Heart rate (HR) [4, 13]: without changing HR
- Blood pressure when added on top of Exforge HCT [1]: further reduced blood pressure
- Blood pressure reduction compared with spironolactone, on top of Exforge HCT ([1]; aprocitentan 10 mg/kg vs spironolactone 300 mg/kg): greater blood pressure reduction than spironolactone
- Clearance in vivo [5]: much shorter
- Half-life in vivo [5]: much longer
- Further decrease of blood pressure (MAP) on top of canagliflozin ([6]; ACT-132577 30 mg/kg/day for 3 days after 12 days canagliflozin 30 mg/kg/day): −14±1 mmHg
- Further decrease of blood pressure (MAP) on top of empagliflozin ([6]; ACT-132577 30 mg/kg/day for 3 days after 12 days empagliflozin 30 mg/kg/day): −18±3 mmHg
- Decrease in blood pressure (MAP) on top of vehicle, without canagliflozin ([6]; ACT-132577 30 mg/kg/day on top of vehicle (canagliflozin comparison)): −16±2 mmHg
- Decrease in blood pressure (MAP) on top of vehicle, without empagliflozin ([6]; ACT-132577 30 mg/kg/day on top of vehicle (empagliflozin comparison)): −14±2 mmHg
- Blood pressure when added on top of Exforge HCT [2]: further reduced blood pressure
- Blood pressure reduction compared with spironolactone, on top of Exforge HCT ([2]; aprocitentan 100 mg/kg vs spironolactone 300 mg/kg): greater blood pressure reduction than spironolactone
- Heart rate (HR) [7]: not affected
- MAP decrease (maximal MAP decrease observed over 6 consecutive hours) ([7]; 10 mg/kg, mean±SEM): 29±6 mm Hg
- Heart rate (HR) [8]: not affected
- MAP decrease (maximal MAP decrease observed over 6 consecutive hours) ([8]; 10 mg/kg, mean±SEM): 19±4 mm Hg

Compound: COc1ccccc1Oc1c(NS(=O)(=O)c2ccc(C)cn2)nc(-c2ccncc2)nc1OC [Avosentan, avosentan]
- Albumin-to-creatinine ratio (ACR) [9]: significantly reduced

Compound: OC[C@H]1O[C@@H](c2ccc(Cl)c(Cc3ccc(O[C@H]4CCOC4)cc3)c2)[C@H](O)[C@@H](O)[C@@H]1O [empagliflozin, reference compound]
- Maximal effect on MAP of SGLT2 inhibitor alone [6]: −13±3 mmHg

Compound: NS(=O)(=O)Nc1ncnc(OCCOc2ncc(Br)cn2)c1-c1ccc(Br)cc1 [Form A, {5-(4-bromo-phenyl)-6-[2-(5-bromo-pyrimidin-2-yloxy)-ethoxy]-pyrimidin-4-yl}-sulfamide]
- Moisture taken up ([10]; at 95% r.h., reversible, without hysteresis upon drying): 2.2%
- Mass increase ([10]; first cycle from 40% r.h. to 80% r.h.): 0.4%
- Hygroscopicity (GVS) ([10]; sample as obtained according to Example 1): slightly hygroscopic
- X-ray powder diffraction of the sample after storage ([11]; 2 months): still consisting only in Form A crystals
- HPLC control after storage (change in peak area %, degradation) ([11]; 8 weeks): no significant degradation

Compound: canagliflozin [reference compound]
- Maximal effect on MAP of SGLT2 inhibitor alone [6]: −9±1 mmHg

Compound: COc1cc(OC)nc(O[C@H](C(=O)O)C(OC)(c2ccccc2)c2ccccc2)n1 [darusentan]
- Fluid retention/edema (most frequent adverse event) (patients with rHT): 28%
